Reference: paper PMC6382696, “Drug Repurposing: The Anthelmintics Niclosamide and Nitazoxanide Are Potent TMEM16A Antagonists That Fully Bronchodilate Airways” (Frontiers in Pharmacology, 2019)
Several values for one entry are separate records, joined by “and”; a condition that tells them apart may be missing. Equal entries are not always repeated. Entries after “also recorded” stand apart in the source; their conditions may differ. Where two headings read alike, the source gives them in different places.

Key:
mouse tracheal rings [1] = test: β-agonist use-dependent desensitization of mouse tracheal rings; settings: round 2
Description: Standard procedures were used to prepare and mount tissues.

human bronchial rings = test: Wire myograph bronchodilation of histamine pre-contracted human bronchial rings (Biopta)
Description: Details of bronchodilator studies shown in Figure 5H, 6 and Supplementary Figure 40 are provided below as part of the end assay report on Study CUR011 by Lee Christie (Biopta). Donors with any of the following conditions were excluded from the study: asthma, COPD, emphysema, lung cancer, cystic fibrosis, pulmonary fibrosis, pulmonary hypertension, pneumonia. Donors were also excluded if they had smoked in the past 12 months. Non-transplantable lung tissue was acquired from organ donors post mortem. Any macroscopically diseased/necrotic tissue was rejected. […] Human airway rings were set up under isometric conditions on a wire myograph in order to examine the influence of the test articles on bronchodilation. In order to assess tissue viability, the airways were challenged with carbachol (10 μM) and then isoprenaline (10 μM) to assess their constriction and relaxation responses, respectively. […] Viable airways were pre-constricted with histamine (10 μM), then exposed to one of the following cumulative concentration response curves (CCRCs): positive control, vehicle (water, volume matched to positive control), test article, vehicle (DMSO concentration matched to test articles). At the end of each CCRC, theophylline (2.2 mM) was added to induce maximal relaxation of the tissue. […] Airways were re-tensioned to 1.0 – 1.5 g if the tension had dropped below 1.0 g during the first 30 min of equilibration. (b) Airways were exposed to carbachol (bath concentration 10 μM) in order to measure their contractile responses and then isoprenaline (10 μM) in order to assess their relaxation. Airways were washed out and allowed to return to baseline. (c) Airways were pre-constricted with histamine (10 μM) before conducting a CCRC to the test article, the positive control (isoprenaline), test article vehicle or positive control vehicle.

mouse airway rings = test: Duration of bronchodilation after washout and carbachol re-challenge, mouse airway rings; settings: EC75 carbachol, preliminary
Protocol: Mouse airway rings were exposed to a typical Wake-Up procedure including the use of KPSS and discovery of EC75 CCh dose responses. However, no isoproterenol was used to observe tissue relaxation as part of the qualification procedure. With pre-contraction with EC75 CCh for >30 min, rings were subjected to a compound dose-response, followed by a complete washout of compound, and re-contracted with EC75 CCh. Traces were recorded for several hours thereafter and normalized to theophylline as control of 100% relaxation.

mouse tracheal rings [2] = test: Bronchodilation of mouse tracheal rings at differing levels of carbachol pre-contraction; settings: for relaxation of airway rings: normalized to theophylline
Protocol: Standard procedures as listed above were used to prepare, mount and Wake-Up tracheal rings and the concentrations of carbachol providing EC25, EC50, EC75, or EC95 levels of contraction for each ring was determined as described above.

mouse tracheal rings [3] = test: Bronchodilation of cytokine-treated mouse tracheal rings; settings: overnight IL-1β, TNFα, IL-13 100 ng/ml, EC75 carbachol
Protocol: Airway rings were treated overnight in 2 ml DMEM + PSG/HEPES/AA/NaPyr buffer alone or with the same solution supplemented with 100 ng/ml of mTNFα, mIL-13 and mIL-1β. Unlike like the typical Wake-Up protocol and ring qualifying tests, mouse tracheal rings were not exposed to KPSS and rings were not observed to relax with a β-agonist following discovery of CCh dose-responses. After several washes with PSS, EC75 concentrations of CCh were used to pre-contract rings for >30 min alone or in the presence of cytokines.

mouse tracheal rings [4] = test: Wire myograph bronchodilation of carbachol pre-contracted mouse tracheal rings
Protocol: The trachea from C57 BL/6 mice was dissected and collected in PBS with Mg^2+ and Ca^2+. After further trimming, two 2 mm sections (rings) per trachea were then placed in DMEM media containing PSG/HEPES/AA/NaPyr for 1 h and used immediately or maintained overnight at 37°C in a humidified incubator with 5% CO2. Rings were then mounted into chambers of DMT wire myograph containing L-shaped mounting pins with 2–3 mN of force applied to secure rings on the pins and the rings were allowed to equilibrate for 25–30 min in a physiological saline buffer (PSS, 130 mM NaCl, 4.7 mM KCl, 1.2 mM MgS04, 14.9 mM NaHCO3, 1.2 mM KH2PO4, 0.026 mM EDTA, 1.6 mM CaCl2, 5.5 mM Dextrose). Throughout the experiment, rings were maintained at physiological temperature and gas conditions by heating buffer reservoir and chamber to 37°C and bubbling a 95% O2, 5% CO2 gas mixture into chamber.
After equilibration, a standard tissue “Wake-Up” procedure was applied by altering tension and then treatment with elevated potassium as follows: 3 mN tension was applied for 5–10 min, then another 2–3 mN tension to total of 5.5 mN and then to 7–8 mN for another 5 min; the tissue pre-tension was then set to 5 mN and allowed to equilibrate for 5–10 min followed by the removal of the PSS buffer and addition of KPSS (60 mM KCl, 74.7 mM NaCl in PSS solution), with force changes monitored until they reached a plateau. The tissue was then washed four times with PSS over 5 min and the KPSS treatment and washes repeated; the tissue was then allowed to sit in PSS for 10 min and the tension was set to 5 mN.
The tissue was then washed three times and then three times more with PSS for 5 min until tension returned to baseline.
Only tissue that passed the qualification tests above advanced to studies on test article compounds. […] For standard ascending dose-response studies on TMEM16A antagonists, an EC75 or EC95 concentration of CCh was used to pre-contract tracheal rings.

hTMEM16A (abc) = molecular target: T1, hTMEM16A (abc) (Homo sapiens, UniProt Q5XXA6, DEL476-501); test: medchem TMEM16A halide-sensitive YFP assay, 22-point dose-response; format: cell-based; set-up: expressed in transfected cells; settings: iodide as permeant anion
T1 sequence (Q5XXA6 with tags, fused parts or gaps isoform Q5XXA6-5 DEL539-564): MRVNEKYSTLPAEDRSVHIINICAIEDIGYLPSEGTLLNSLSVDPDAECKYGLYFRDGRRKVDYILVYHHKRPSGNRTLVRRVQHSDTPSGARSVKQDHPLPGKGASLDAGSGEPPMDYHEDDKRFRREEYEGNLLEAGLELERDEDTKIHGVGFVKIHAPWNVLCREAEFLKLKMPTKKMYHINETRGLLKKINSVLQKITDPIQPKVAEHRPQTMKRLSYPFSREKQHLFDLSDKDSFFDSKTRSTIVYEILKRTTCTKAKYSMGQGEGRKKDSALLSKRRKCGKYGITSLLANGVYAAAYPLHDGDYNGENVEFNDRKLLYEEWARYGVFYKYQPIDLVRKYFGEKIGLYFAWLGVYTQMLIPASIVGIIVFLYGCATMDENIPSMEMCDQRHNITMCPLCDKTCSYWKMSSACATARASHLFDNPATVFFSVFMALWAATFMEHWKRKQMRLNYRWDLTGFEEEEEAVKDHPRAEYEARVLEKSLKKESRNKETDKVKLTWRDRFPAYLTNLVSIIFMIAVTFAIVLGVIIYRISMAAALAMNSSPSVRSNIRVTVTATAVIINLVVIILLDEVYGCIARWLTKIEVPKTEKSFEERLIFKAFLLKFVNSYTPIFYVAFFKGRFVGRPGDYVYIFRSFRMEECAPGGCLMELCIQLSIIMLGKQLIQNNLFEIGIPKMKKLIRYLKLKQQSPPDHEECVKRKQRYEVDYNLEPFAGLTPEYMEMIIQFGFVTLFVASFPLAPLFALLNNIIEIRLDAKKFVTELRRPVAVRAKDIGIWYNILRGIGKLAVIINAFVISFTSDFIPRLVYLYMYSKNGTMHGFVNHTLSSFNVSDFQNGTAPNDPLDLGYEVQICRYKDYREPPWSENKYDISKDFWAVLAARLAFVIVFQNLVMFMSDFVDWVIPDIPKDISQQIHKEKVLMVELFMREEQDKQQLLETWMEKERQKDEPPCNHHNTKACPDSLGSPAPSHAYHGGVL
Protocol: The TMEM16A HEK293T eYFP (H149Q, I153L) stable cell line for medchem support was generated by transfecting 10 μg of linearized hTMEM16A(abc) DNA constructs into HEK293T eYFP (H149Q,I153L) stable cells. The transfected cells were cultured under 200 μg/ml of hygromycin B selection for 20 days and the stable pool was single cell seeded in 96 well plate and duplicated plate were made after single cell clones were formed. YFP function assay were performed on duplicated plate and clones producing higher changes in fluorescence from the YFP assay were chosen for further expansion to form a stable cell line.
Plates were incubated for 24 h at 37°C with 5% CO2. On the assay day, medium was removed and replaced with 20 μl/well of assay buffer (Hank’s Balanced Salt Solution with 10 mM HEPES pH 7.4), 10 μl/well of 40x diluted compounds was added to assay plate and it was incubated at room temperature for 30 min, after which baseline fluorescence was read in the FLIPR instrument for 10 s. Then, 5 μl/well of a 3x trigger solution (24 mM iodide, 3 μM ionomycin in assay buffer) was added and the fluorescence kinetic trace was recorded for 2 min.

[5] = system: Wnt/β-catenin transcription; test: Wnt/β-catenin transcription TOPFlash reporter assay; format: cell-based; settings: Wnt TopFlash IC50 over TMEM16A eYFP IC50
[6] = system: Wnt/β-catenin transcription; settings: ref Mook et al. (2015); read-out: Mook et al. Wnt/β-catenin TopFlash (IC50); cited from earlier work
[7] = supplement, maximum concentration 55.6, read-out: TMEM16A eYFP Assay IC50

Row | Compound | IC50 (hTMEM16A (abc); [7]) [nM] | IC50 Ratio, Wnt/TMEM16A [5] | IC50 [6] [nM] | also measured
1 | CC(C)NCC(O)c1ccc(O)c(O)c1 (stereo not drawn) [Isoproterenol, isoproterenol] |  |  |  | % relaxation after second treatment and highest dose (mouse tracheal rings [1]; EC50 carbachol): 78.6%; % relaxation after second treatment and highest dose (mouse tracheal rings [1]; EC75 carbachol): 42.7%; EC50 (human bronchial rings; Homo sapiens, 10 μM histamine, read-out: EC50 bronchodilating histamine precontracted human airways): 30 nM; time to steady-state relaxation of human bronchial rings (human bronchial rings; histamine pre-contracted, 10 or 100 nM): less than 7 min; time to open airways (human bronchial rings; summary): < 7 min; duration of bronchodilation after washout and re-challenge (mouse airway rings): short-acting; also recorded: quickly lost; relaxation of airway rings (mouse tracheal rings [2]; EC25 level of carbachol): 100%; bronchodilation of a single maximally contracted ring (mouse tracheal rings [2]; EC95 carbachol, highest dose (1 μM)): 38% and 37.7%; relaxation of airway rings (mouse tracheal rings [2]; EC95 level of carbachol): 42%; bronchodilation of cytokine-treated airways (mouse tracheal rings [3]): dramatically reduced; time to relax mouse tracheal rings (mouse tracheal rings [4]; EC75 carbachol, 10 nM dose (Supplementary Figure 39)): 2 – 4 min and 2 − 4 min; EC50 (mouse tracheal rings [4]; EC75 carbachol, Exp 1-3, read-out: EC50 relaxation of mouse tracheal rings, individual experiments): 5.9 nM and 7.7 nM; EC50 (mouse tracheal rings [4]; Mus musculus, EC75 carbachol, Exp 1-3, read-out: EC50 relaxation of mouse tracheal rings, individual experiments): 8.1 nM; EC50 (mouse tracheal rings [4]; Mus musculus, pre-contracted with EC75 carbachol, average, read-out: EC50 relaxation of mouse tracheal rings): 7.1 nM
2 | O=C(Nc1ccccc1)c1cc(Cl)ccc1O [Cpd 6] | 1040 | 11.36 | 11800 | 
3 | O=C(Nc1ccccc1Cl)c1cc(Cl)ccc1O [Cpd 11] | 330 | 9.24 | 3050 | 
4 | CC(=O)c1ccc(NC(=O)c2cc(Cl)ccc2O)cc1 [Cpd 7] | 2620 | 2.45 | 6420 | 
5 | O=C(Nc1ccc(Cl)c(Cl)c1)c1cc(Cl)ccc1O [Cpd 14] |  | 8.11 | 730 | IC50 (hTMEM16A (abc); TMEM16A eYFP Assay IC50, supplement, maximum concentration 55.6): 90 nM

The next lines start with results.

Row | IC50 (hTMEM16A (abc); [7]) [nM] | IC50 Ratio, Wnt/TMEM16A [5] | Compound | IC50 [6] [nM] | also measured
6 | 90 | 4.67 | O=C(Nc1ccc(Cl)cc1Cl)c1cc(Cl)ccc1O [Cpd 12] | 420 | IC50 (hTMEM16A (abc); average, 22-point dose-response, read-out: TMEM16A eYFP Assay (IC50)): 88 nM
7 | 200 | 3.50 | O=C(Nc1cc(Cl)cc(Cl)c1)c1cc(Cl)ccc1O [Cpd 13] | 700 | 
8 | 130 | 6.85 | O=C(Nc1cccc(C(F)(F)F)c1)c1cc(Cl)ccc1O [Cpd 9] | 890 | 
9 | 90 | 18.33 | O=C(Nc1cccc(Cl)c1)c1cc(Cl)ccc1O [Cpd 10] | 1650 | 
